{"source": "patent US4355025A", "about": "“Biologically active amides” (Burroughs Wellcome Co., priority 1975, dated 1982)", "test_system": "mice of the NZO strain (genetically obese, hyperglycaemic and hyperinsulinaemic)", "assay": "APP given intraperitoneally to NZO mice: blood glucose, serum insulin, weight, oral Glucose Tolerance Test", "assay_type": "in vivo", "conditions": "mean of APP-treated group, 1 μg i.p. 3 times a day; for Serum Insulin: Beef equivalent", "text": "It has now unexpectedly been found by the Applicants that these vertebrate pancreatic polypeptides (hereinafter collectively referred to as VPPs, which term should be understood to include such polypeptides of avian, amphibian, piscian, reptilian or mammalian origin) are as a class effective in lowering the concentration in the blood of both glucose and insulin when administered to a strain (NZO) of genetically obese, hyperglycaemic and hyperinsulinaemic mice. At the same time these treated mice lose weight as compared with untreated control animals and give normalized values in the oral Glucose Tolerance Test standard in the art.\nAPP (Endocrinology 83, 1323 (1968)) (1 μg) in water (0.1 ml) was administered by intraperitoneal injection 3 times a day for 25 days to each of 5 male mice (age 6 weeks, weight 23 g) of the NZO strain (genetically obese, hyperglycaemic and hyperinsulinaemic). 5 Matched control animals each received plain water (0.1 ml) by the same route and according to the same schedule. The blood glucose and serum insulin levels were measured at the start and during the course of the experiment and the mean results for the APP-treated group are shown in Table 1. No change in these levels from the values on day 0, which were the same as in the treated group, occurred in the control group over the course of the experiment."}
{"substance": "avian pancreatic polypeptide [APP]", "values": [{"measurement": "Serum Insulin", "setting": "Day 0 (start)", "result": 189, "unit": "μU/ml"}, {"measurement": "Blood glucose", "setting": "Day 0 (start), 5 male NZO mice", "result": 175, "unit": "mg. %"}, {"measurement": "Blood glucose", "setting": "Day 5", "result": 162, "unit": "mg. %"}, {"measurement": "Serum Insulin", "setting": "Day 10", "result": 99, "unit": "μU/ml"}, {"measurement": "Blood glucose", "setting": "Day 15", "result": 154, "unit": "mg. %"}, {"measurement": "Serum Insulin", "setting": "Day 20", "result": 47, "unit": "μU/ml"}, {"measurement": "Blood glucose", "setting": "Day 25", "result": 136, "unit": "mg. %"}]}
